In patent US10112933B2, “Methods and compositions for treatment of fibrosis” (Baylor College of Medicine, priority 2013, dated 2018):

Each compound was assayed against T1, Stat1 (pY701) (Homo sapiens, UniProt P42224) (assay: Immunoblot: IFN-γ-mediated phosphorylation of Stat1 in HepG2 cells). Details: HepG2, compound 300 μM, 1 hour.
T1 construct: endogenous in cells; host or cells: HepG2
T1 sequence (P42224 1-750): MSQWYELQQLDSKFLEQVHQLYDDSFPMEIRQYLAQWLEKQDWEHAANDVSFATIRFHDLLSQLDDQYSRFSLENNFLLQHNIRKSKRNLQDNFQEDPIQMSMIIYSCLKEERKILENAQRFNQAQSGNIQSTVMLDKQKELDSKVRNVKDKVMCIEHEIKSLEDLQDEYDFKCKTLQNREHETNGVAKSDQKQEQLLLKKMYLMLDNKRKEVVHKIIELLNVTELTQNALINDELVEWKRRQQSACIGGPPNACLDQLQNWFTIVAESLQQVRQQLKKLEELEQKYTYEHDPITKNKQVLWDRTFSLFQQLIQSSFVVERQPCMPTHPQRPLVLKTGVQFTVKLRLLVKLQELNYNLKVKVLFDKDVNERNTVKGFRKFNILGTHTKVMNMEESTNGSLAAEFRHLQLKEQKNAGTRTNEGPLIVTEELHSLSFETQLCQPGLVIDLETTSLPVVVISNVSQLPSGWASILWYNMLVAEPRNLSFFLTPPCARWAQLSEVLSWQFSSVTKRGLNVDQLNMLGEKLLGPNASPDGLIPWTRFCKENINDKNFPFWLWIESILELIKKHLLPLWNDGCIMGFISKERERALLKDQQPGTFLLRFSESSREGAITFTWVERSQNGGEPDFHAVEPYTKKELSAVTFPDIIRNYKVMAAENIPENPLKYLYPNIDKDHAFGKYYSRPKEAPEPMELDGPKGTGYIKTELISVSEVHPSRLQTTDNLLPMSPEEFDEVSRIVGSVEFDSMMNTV
Assay type: cell-based
Protocol: HepG2 cells were pretreated with DMSO alone or DMSO containing each of the compounds at a concentration of 300 μM for 60 min. Cells were then stimulated with IFN-γ (30 ng/ml) for 30 min. Protein extracts of cells were separated by SDS-PAGE and immunoblotted serially with antibodies to pStat1, total Stat1 and β-actin. Blots were stripped between each immunoblotting. The results shown are representative of 2 or more experiments.
Immunoblot assay. The human hepatocellular carcinoma cell line (HepG2) was grown in 6-well plates under standard conditions. Cells were pretreated with compounds (0, 1, 3, 10, 30, 100 and 300 uM) for 1 hour then stimulated under optimal conditions with either interferon gamma (IFN-γ; 30 ng/ml for 30 min) to activate Stat1 or interleukin-6 (IL-6; 30 ng/ml for 30 min) to activate Stat3 (30-31). Cultures were then harvested and proteins extracted using high-salt buffer, as described (Shao et al., 2006). Briefly, extracts were mixed with 2× sodium dodecyl sulfate (SDS) sample buffer (125 mmol/L Tris-HCL pH 6.8; 4% SDS; 20% glycerol; 10% 2-mercaptoethanol) at a 1:1 ratio and heated for 5 minutes at 100° C. Proteins (20 μg) were separated by 7.5% SDS-PAGE and transferred to polyvinylidene fluoride (PVDF) membrane (Millipore, Waltham, Mass.) and immunoblotted. Prestained molecular weight markers (Biorad, Hercules, Calif.) were included in each gel. Membranes were probed serially with antibody against Stat1 pY^701 or Stat3 pY^705 followed by antibody against Stat1 or Stat3 (Transduction labs, Lexington, Ky.) then antibody against β-actin (Abcam, Cambridge, Mass.). Membranes were stripped between antibody probing using Restore™ Western Blot Stripping Buffer (Thermo Fisher Scientific Inc., Waltham, Mass.) per the manufacturer's instructions. Horseradish peroxidase-conjugated goat-anti-mouse IgG was used as the secondary antibody (Invitrogen Carlsbad, Calif.) and the membranes were developed with enhanced chemiluminescence (ECL) detection system (Amersham Life Sciences Inc.; Arlington Heights, Ill.).
EXP IIC. Ligand-mediated pStat3 and pStat1 inhibition assays. […] Briefly, human hepatocellular carcinoma cells (HepG2) are grown in 6-well plates and pretreated with compounds (0, 0.1, 0.3, 1, 3, 10, 30, 100 μM) for 1 hour then stimulated under optimal conditions with either interleukin-6 (IL-6; 30 ng/ml for 30 min) to activate Stat3 or interferon gamma (IFN-γ; 30 ng/ml for 30 min) to activate Stat1. Cells are harvested and proteins extracted using high-salt buffer, mixed with 2× sodium dodecyl sulfate (SDS) sample buffer (125 mmol/L Tris-HCL pH 6.8; 4% SDS; 20% glycerol; 10%2-mercaptoethanol) at a 1:1 ratio then heated for 5 minutes at 100° C. Proteins (20 μg) are separated by 7.5% SDS-PAGE and transferred to polyvinylidene fluoride (PVDF) membrane (Millipore, Waltham, Mass.) and immunoblotted. Membranes are probed serially with antibody against Stat1 pY701 or Stat3 pY705 followed by antibody against Stat1 or Stat3 (Transduction labs, Lexington, Ky.) then antibody against β-actin (Abcam, Cambridge, Mass.). Membranes are stripped between antibody probings using Restore™ Western Blot Stripping Buffer (Thermo Fisher Scientific Inc., Waltham, Mass.) per the manufacturer's instructions. Horseradish peroxidase-conjugated goat-anti-mouse IgG is used as the secondary antibody (Invitrogen Carlsbad, Calif.) and the membranes are developed with enhanced chemiluminescence (ECL) detection system (Amersham Life Sciences Inc.; Arlington Heights, Ill.). Band intensities are quantified by densitometry. The value of each pStat3 band is divided by its corresponding total Stat3 band intensity; the results are normalized to the DMSO-treated control value. This value was plotted as a function of the log compound concentration. The best-fitting curve is determined using 4-Parameter Logistic Model/Dose Response/XLfit 4.2, IDBS software and was used to calculate the IC50 value.
In the case of `CCOc1cc(C=C2C(=O)c3ccccc3C2=O)cc(Cl)c1OCc1cccc(C(=O)O)c1` [Cpd3-2, 3-({2-chloro-4-[(1,3-dioxo-1,3-dihydro-2H-inden-2-ylidene)methyl]-6-ethoxyphenoxy}methyl)benzoic acid], the “Stat1 phosphorylation after IFN-γ stimulation” value (“Stat1 phosphorylation” for short) is reported as “did not”. In the case of `O=C(O)c1ccc(C=CC(=O)c2ccc3c(c2)OCCO3)cc1` [Cpd3, 4-[3-(2,3-dihydro-1,4-benzodioxin-6-yl)-3-oxo-1-propen-1-yl]benzoic acid], the “Stat1 phosphorylation” value is reported as “did not”. With `CCN1C(=O)C(=Cc2ccc(-c3cc(C(=O)O)ccc3Cl)o2)C(=O)N(CC)C1=S` [Cpd30-12, 4-chloro-3-{5-[(1,3-diethyl-4,6-dioxo-2-thioxotetrahydro-5(2H)-pyrimidinylidene)methyl]-2-furyl}benzoic acid] the “Stat1 phosphorylation” value was “blocked Stat1 phosphorylation”.
